In patent publication US12018059B2, “Human amylin analog polypeptides and methods of use” (Intarcia Therapeutics, Inc., priority 2018, dated 2024):
Positions of bridges follow the written chain, without caps; N, C: chain ends. Non-standard residues stand in square brackets, D forms with d. Residues, ends and D or L forms follow the SMILES beside them.

Assay: Pharmacokinetics, 3-hour intravenous infusion of linear (non-acylated) polypeptides
Design: species or system Sprague-Dawley rats
Conditions: rat, in vivo, 0.1 mg/kg; linear polypeptides; 3-hour intravenous infusion, 0.100 mg/kg, male Sprague-Dawley rats; read-out: CL
Procedure: Peptides were dissolved in sterile saline and administered as a 3-hour intravenous infusion to non-fasted male Sprague-Dawley rats (n=3 per group) via femoral vein cannula at a final dose of 0.100 mg/kg. […] Blood samples (approximately 250 μL) were collected for pharmacokinetic analysis via a jugular vein cannula at 0.25, 0.5, 1, 2, 3, 3.17, 3.33, 3.5, 4, 4.5, 5, and 6 hr post-start of infusion (long method) or at 1, 1.5, 2, 2.5, and 3 hr post-start of infusion (steady-state screening method). All samples were collected into microtainer tubes containing K2EDTA as anticoagulant and 25 μL of a protease inhibitor cocktail. Plasma was prepared by centrifugation and stored at −80° C. until analysis. The results of this analysis are shown in Table 9 and few exemplars in FIGS. 3a-3b.
A 60 μL aliquot of each plasma sample was placed into to a 96-well plate. To each well was added 6 μL of 0.5% Tween-20. Plates were then vortexed mixed for 10 minutes at 1200 rpm before 180 μL of 0.1% TFA in 2:1 ethanol:acetonitrile containing an appropriate internal standard was added to each well. Plates were vortex mixed for 5 min at 1300 rpm, and then centrifuged for 10 min at 2844×g. Supernatants (180 μL) were placed into a clean 96-well plate and evaporated under a nitrogen stream at 45° C. Residues were reconstituted in 80 μL of 20% acetonitrile (aq) containing 0.1% formic acid.
A […] aliquot of each plasma sample was diluted with […] of 10 mM ammonium acetate (pH 6.8) containing an appropriate internal standard and loaded onto an Oasis WCX microElution plate (Waters Corporation, Milford, MA) that had been pre-conditioned with […] of methanol and […] of deionized water. Samples were washed with […] of 5% ammonium hydroxide (aq) followed by […] of 20% acetonitrile in water. The analyte was eluted with […] of 5% formic acid in 75:25 acetonitrile:water. The eluent was dried under a nitrogen stream. Residues were reconstituted in 80 μL of 20% acetonitrile (aq) containing 0.1% formic acid.
All calibration standards were prepared in control rat plasma containing K2EDTA and protease inhibitor cocktail.
Samples and standards were analyzed by TurbolonSpray™ UPLC-MS/MS using a system consisting of a CTC HTS PAL auto-injector (Leap, Carrboro, NC), an Agilent Infinity 1290 system with column oven (Palo Alto, CA), a Valco switching valve (Houston, TX), and either an AB Sciex API 5600 TripleTOF™ or Sciex API 4000QTrap mass spectrometer (Framingham, MA). Samples were injected onto a 2.1×50 mm reverse phase C18 analytical column, typically a Waters CORTECS UPLC C18+, 1.6 μm (Waters Corporation, Milford, MA) or similar. […] Initial conditions consisted of 90% A and 10% B. The organic component was increased to 95% B over a period of 3-4 minutes, depending on the peptide. Typical flow rates were 600 μL/min. The column temperature was held constant at 40 or 50° C. Peptides were quantified by monitoring one or more product ions produced from a multiply charged parent ion.
`CC[C@H](C)[C@H](NC(=O)[C@@H]1CCCN1C(=O)CNC(=O)[C@H](Cc1ccccc1)NC(=O)[C@H](CC(N)=O)NC(=O)[C@H](CC(N)=O)NC(=O)[C@H](CO)NC(=O)[C@H](CO)NC(=O)[C@H](CCCCN)NC(=O)[C@H](Cc1c[nH]cn1)NC(=O)[C@H](CC(C)C)NC(=O)[C@H](CCC(=O)O)NC(=O)[C@H](CC(N)=O)NC(=O)[C@H](C)NC(=O)[C@H](CC(C)C)NC(=O)[C@H](CCCNC(=N)N)NC(=O)[C@H](CCC(N)=O)NC(=O)[C@@H](NC(=O)[C@H](C)NC(=O)[C@@H]1CSSC[C@H](NC(=O)[C@@H](N)CO)C(=O)N[C@@H](CC(N)=O)C(=O)N[C@@H]([C@@H](C)O)C(=O)N[C@@H](CO)C(=O)N[C@@H]([C@@H](C)O)C(=O)N1)[C@@H](C)O)C(=O)N[C@@H](CC(C)C)C(=O)N1CCC[C@H]1C(=O)N1CCC[C@H]1C(=O)N[C@H](C(=O)N[C@@H](CCCCN)C(=O)N[C@H](C(=O)NCC(=O)N[C@@H](CO)C(=O)N[C@@H](CC(N)=O)C(=O)N[C@H](C(=O)N[C@@H](Cc1ccc(O)cc1)C(N)=O)[C@@H](C)O)C(C)C)[C@@H](C)O` [Compound A17] (H-SCNTSTCATQRLANELHKSSNNFGPILPPTKVGSNTY-NH2; disulfide 2-7) gave a clearance of 20 mL/min/kg. `CC[C@H](C)[C@H](NC(=O)[C@@H]1CCCN1C(=O)CNC(=O)[C@H](Cc1ccccc1)NC(=O)[C@H](CC(N)=O)NC(=O)[C@H](CC(N)=O)NC(=O)[C@H](CO)NC(=O)[C@H](CO)NC(=O)[C@H](Cc1c[nH]cn1)NC(=O)[C@@H](NC(=O)[C@H](CC(C)C)NC(=O)[C@H](CCC(=O)O)NC(=O)[C@H](CC(N)=O)NC(=O)[C@H](C)NC(=O)[C@H](CC(C)C)NC(=O)[C@H](CCCNC(=N)N)NC(=O)[C@H](CO)NC(=O)[C@@H](NC(=O)[C@H](C)NC(=O)[C@@H]1CSSC[C@H](NC(=O)[C@@H](N)CO)C(=O)N[C@@H](CC(N)=O)C(=O)N[C@@H]([C@@H](C)O)C(=O)N[C@@H](CO)C(=O)N[C@@H]([C@@H](C)O)C(=O)N1)[C@@H](C)O)C(C)C)C(=O)N[C@@H](CC(C)C)C(=O)N1CCC[C@H]1C(=O)N1CCC[C@H]1C(=O)N[C@H](C(=O)N[C@@H](CC(N)=O)C(=O)N[C@H](C(=O)NCC(=O)N[C@@H](CO)C(=O)N[C@@H](CC(N)=O)C(=O)N[C@H](C(=O)N[C@@H](Cc1ccc(O)cc1)C(N)=O)[C@@H](C)O)C(C)C)[C@@H](C)O` [Compound A32] (H-SCNTSTCATSRLANELVHSSNNFGPILPPTNVGSNTY-NH2; disulfide 2-7) gave a clearance of 19.5 mL/min/kg.

Same assay, conditions: rat, in vivo, iv, 0.1 mg/kg
Compound `CC[C@H](C)[C@H](NC(=O)[C@@H]1CCCN1C(=O)CNC(=O)[C@H](Cc1ccccc1)NC(=O)[C@H](CCC(=O)O)NC(=O)[C@H](CC(N)=O)NC(=O)[C@H](CO)NC(=O)[C@H](CO)NC(=O)[C@H](CCCCN)NC(=O)[C@@H](NC(=O)[C@H](CC(C)C)NC(=O)[C@H](Cc1ccccc1)NC(=O)[C@H](CC(N)=O)NC(=O)[C@H](CO)NC(=O)[C@H](CC(C)C)NC(=O)[C@H](CCCNC(=N)N)NC(=O)[C@H](CCC(N)=O)NC(=O)[C@@H](NC(=O)[C@H](C)NC(=O)[C@@H]1CSSC[C@H](NC(=O)[C@@H](N)CO)C(=O)N[C@@H](CC(N)=O)C(=O)N[C@@H]([C@@H](C)O)C(=O)N[C@@H](CO)C(=O)N[C@@H]([C@@H](C)O)C(=O)N1)[C@@H](C)O)C(C)C)C(=O)N[C@@H](CC(C)C)C(=O)N1CCC[C@H]1C(=O)N1CCC[C@H]1C(=O)N[C@H](C(=O)N[C@@H](CCCCN)C(=O)N[C@H](C(=O)NCC(=O)N[C@@H](CO)C(=O)N[C@@H](CCC(=O)O)C(=O)N[C@H](C(=O)N[C@@H](Cc1ccc(O)cc1)C(N)=O)[C@@H](C)O)C(C)C)[C@@H](C)O` [Compound A4] (H-SCNTSTCATQRLSNFLVKSSNEFGPILPPTKVGSETY-NH2; disulfide 2-7) has a clearance of 13.6 mL/min/kg. Work on `CC[C@H](C)[C@H](NC(=O)[C@@H]1CCCN1C(=O)CNC(=O)[C@H](Cc1ccccc1)NC(=O)[C@H](CCC(=O)O)NC(=O)[C@H](CC(N)=O)NC(=O)[C@H](CO)NC(=O)[C@H](CO)NC(=O)[C@H](CCCCN)NC(=O)[C@@H](NC(=O)[C@@H](CC(C)C)NC(=O)[C@H](Cc1ccccc1)NC(=O)[C@H](CC(N)=O)NC(=O)[C@H](C)NC(=O)[C@H](CC(C)C)NC(=O)[C@H](CCCNC(=N)N)NC(=O)[C@H](CCC(N)=O)NC(=O)[C@@H](NC(=O)[C@H](C)NC(=O)[C@@H]1CSSC[C@H](NC(=O)[C@@H](N)CO)C(=O)N[C@@H](CC(N)=O)C(=O)N[C@@H]([C@@H](C)O)C(=O)N[C@@H](CO)C(=O)N[C@@H]([C@@H](C)O)C(=O)N1)[C@@H](C)O)C(C)C)C(=O)N[C@@H](CC(C)C)C(=O)N1CCC[C@H]1C(=O)N1CCC[C@H]1C(=O)N[C@H](C(=O)N[C@@H](CCCCN)C(=O)N[C@H](C(=O)NCC(=O)N[C@@H](CO)C(=O)N[C@@H](CCC(=O)O)C(=O)N[C@H](C(=O)N[C@@H](Cc1ccc(O)cc1)C(N)=O)[C@@H](C)O)C(C)C)[C@@H](C)O` [Compound A6] (H-SCNTSTCATQRLANF[dL]VKSSNEFGPILPPTKVGSETY-NH2; disulfide 2-7; N-terminus assumed) yielded a clearance of 26.4 mL/min/kg. For `CC[C@H](C)[C@H](NC(=O)[C@@H]1CCCN1C(=O)CNC(=O)[C@H](Cc1ccccc1)NC(=O)[C@H](CCC(=O)O)NC(=O)[C@H](CC(N)=O)NC(=O)[C@H](CO)NC(=O)[C@H](CO)NC(=O)[C@H](CCCCN)NC(=O)[C@@H](NC(=O)[C@H](CC(C)C)NC(=O)[C@H](Cc1ccc(O)cc1)NC(=O)[C@H](CC(N)=O)NC(=O)[C@H](C)NC(=O)[C@H](CC(C)C)NC(=O)[C@H](CCCNC(=N)N)NC(=O)[C@H](CCC(N)=O)NC(=O)[C@@H](NC(=O)[C@H](C)NC(=O)[C@@H]1CSSC[C@H](NC(=O)[C@@H](N)CO)C(=O)N[C@@H](CC(N)=O)C(=O)N[C@@H]([C@@H](C)O)C(=O)N[C@@H](CO)C(=O)N[C@@H]([C@@H](C)O)C(=O)N1)[C@@H](C)O)C(C)C)C(=O)N[C@@H](CC(C)C)C(=O)N1CCC[C@H]1C(=O)N1CCC[C@H]1C(=O)N[C@H](C(=O)N[C@@H](CCCCN)C(=O)N[C@H](C(=O)NCC(=O)N[C@@H](CO)C(=O)N[C@@H](CCC(=O)O)C(=O)N[C@H](C(=O)N[C@@H](Cc1ccc(O)cc1)C(N)=O)[C@@H](C)O)C(C)C)[C@@H](C)O` [Compound A15] (H-SCNTSTCATQRLANYLVKSSNEFGPILPPTKVGSETY-NH2; disulfide 2-7), the clearance was 14.4 mL/min/kg. For `CC[C@H](C)[C@H](NC(=O)[C@@H]1CCCN1C(=O)CNC(=O)[C@H](Cc1ccccc1)NC(=O)[C@H](CC(N)=O)NC(=O)[C@H](CC(N)=O)NC(=O)[C@H](CO)NC(=O)[C@H](CO)NC(=O)[C@H](CCCNC(=N)N)NC(=O)[C@H](Cc1c[nH]cn1)NC(=O)[C@H](CC(C)C)NC(=O)[C@H](CCC(=O)O)NC(=O)[C@H](CC(N)=O)NC(=O)[C@H](CO)NC(=O)[C@H](CC(C)C)NC(=O)[C@H](CCCNC(=N)N)NC(=O)[C@H](CO)NC(=O)[C@@H](NC(=O)[C@H](C)NC(=O)[C@@H]1CSSC[C@H](NC(=O)[C@@H](N)CO)C(=O)N[C@@H](CC(N)=O)C(=O)N[C@@H]([C@@H](C)O)C(=O)N[C@@H](CO)C(=O)N[C@@H]([C@@H](C)O)C(=O)N1)[C@@H](C)O)C(=O)N[C@@H](CC(C)C)C(=O)N1CCC[C@H]1C(=O)N1CCC[C@H]1C(=O)N[C@H](C(=O)N[C@@H](CCCCN)C(=O)N[C@H](C(=O)NCC(=O)N[C@@H](CO)C(=O)N[C@@H](CCC(=O)O)C(=O)N[C@H](C(=O)N[C@@H](Cc1ccc(O)cc1)C(N)=O)[C@@H](C)O)C(C)C)[C@@H](C)O` [Compound A33] (H-SCNTSTCATSRLSNELHRSSNNFGPILPPTKVGSETY-NH2; disulfide 2-7), the clearance was 17.7 mL/min/kg.
